# Values of other authors in patent US9415078B2 (priority 2011, dated 2016).
# Values joined by “and” are separate entries in the source; they are usually repeats but may differ in a detail not shown here. Equal values may be shown once. Read-outs that look alike come from different tables or passages of the source.
# Test system: non squamous and squamous carcinoma of lung
# Conditions: pemetrexed-based therapy, two comparisons
smiles,measurement,setting,value
Nc1nc2[nH]cc(CCc3ccc(C(=O)N[C@@H](CCC(=O)O)C(=O)O)cc3)c2c(=O)[nH]1 [pemetrexed],HR for survival versus the comparators,Non squamous patients,0.78 and 0.84
same,HR for survival versus the comparators,squamous patients,1.56 and 1.23
